Laboratory results from patent US20250340551A1, “SMALL MOLECULE MODULATORS OF STAT6” (Gilead Sciences, Inc., priority 2024, published 2025).

What was measured:
human STAT6 = human STAT6 (Homo sapiens (Human), UniProt P42226); experiment: Surface plasmon resonance assay (Biacore 8K, binding to immobilized STAT6); settings: human STAT6 aa122-658, N-terminal His-tag, CM5 chip, 25° C.; geometric mean; read-out: STAT6 SPR Kd
How it was run: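 Run at 25° C with His-tagged STAT6 aa122-658 (insect-cell expressed) amine-coupled to a CM5 chip, reference-subtracted, in PBS-P+ with 2% DMSO. Multi-cycle kinetics: 60 sec. contact, up to 300 sec. dissociation. Affinity fitted from late report-point binding isotherms, with Rmax both free and fixed to theoretical 1:1.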

[1] = test system: Eotaxin-3 (CCL26) release in human whole blood stimulated with IL-4; experiment: Human whole blood eotaxin-3 assay (IL-4 stimulated, Eotaxin-3 release); format: cell-based; settings: for Emax: 48 h
How it was run: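 Lithium-heparin blood preincubated 2 h at 37° C with 4-fold compound dilutions (0.5% DMSO, triplicates), then stimulated with 400 pM recombinant human IL-4 for 48 h. Eotaxin-3 in plasma supernatant measured by MSD immunoassay.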

Sequence of human STAT6 (P42226 122-658): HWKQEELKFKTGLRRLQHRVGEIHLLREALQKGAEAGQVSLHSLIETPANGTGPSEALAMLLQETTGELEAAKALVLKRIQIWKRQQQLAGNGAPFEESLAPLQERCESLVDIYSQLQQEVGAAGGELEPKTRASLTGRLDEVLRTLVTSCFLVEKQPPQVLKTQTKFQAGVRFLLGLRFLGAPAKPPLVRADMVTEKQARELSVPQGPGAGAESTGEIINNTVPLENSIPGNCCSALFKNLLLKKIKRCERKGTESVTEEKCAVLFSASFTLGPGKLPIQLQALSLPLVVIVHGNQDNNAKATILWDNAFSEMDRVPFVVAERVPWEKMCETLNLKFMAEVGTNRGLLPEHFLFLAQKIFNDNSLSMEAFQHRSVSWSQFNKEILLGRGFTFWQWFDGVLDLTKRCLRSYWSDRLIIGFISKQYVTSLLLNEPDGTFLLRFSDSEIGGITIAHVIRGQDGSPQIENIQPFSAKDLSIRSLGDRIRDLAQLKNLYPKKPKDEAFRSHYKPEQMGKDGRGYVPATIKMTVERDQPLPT

| Molecule | Kd (human STAT6) | Eotaxin-3 Emax (%) ([1]; human whole blood, 400 pM recombinant human IL-4, 48 h, Emax provided for compounds with <80% Emax, geometric mean) | EC50 ([1]; human whole blood, 400 pM recombinant human IL-4, 48 h, EC50 provided for compounds with >80% Emax, geometric mean) | EC50 ([1]; Homo sapiens, Hec50, 48 h) | Emax ([1]; Homo sapiens) |
| --- | --- | --- | --- | --- | --- |
| 4-[1-[[4-(6-Amino-2-methoxy-3-pyridyl)-1-methyl-pyrrolo[2,3-b]pyridin-2-yl]methyl]-4-piperidyl]-N,N-bis(trideuteriomethyl)benzamide [Example 1k44] | 25.6 nM | 77% |  |  |  |
| 4-[1-[[4-(6-Amino-2-methyl-3-pyridyl)-1-methyl-pyrrolo[2,3-b]pyridin-2-yl]methyl]-4-piperidyl]-N,N-dimethyl-benzamide [Example 1k12] | 20.1 nM |  | 15700 nM |  |  |
| CNc1ccc(-c2ccnc3c2cc([C@@H](C)N2CCC(c4ccc(C(=O)N(C)C)cc4)CC2)n3C)cn1 (single isomer, unassigned) [Example 1af8] | 14.6 nM |  |  | 369 nM |  |
| C[C@@H]1C[C@H](c2ccc(C(=O)N(C)C)cc2)CCN1Cc1cc2c(-c3ccc(N)cn3)ccnc2n1C (single isomer, unassigned) [Example 1q1] | 18.1 nM |  |  | 370 nM |  |
| C[C@@H]1C[C@H](c2ccc(C(=O)N(C)C)cc2)CCN1Cc1cc2c(-c3ccc(N)nc3C#N)ccnc2n1C (single isomer, unassigned) [Example 1q4] | 18.4 nM |  |  | 138 nM |  |
| C[C@H]1C[C@@H](c2ccc(C(=O)N(C)C)cc2)CCN1Cc1cc2c(-c3ccc(N)nc3C#N)ccnc2n1C (single isomer, unassigned) [Example 1q5] | 57.4 nM |  |  | 651 nM |  |
| C[C@H]1C[C@@H](c2ccc(C(=O)N(C)C)cc2)CCN1Cc1cc2c(-c3ccc(N)cn3)ccnc2n1C (single isomer, unassigned) [Example 1q6] | 47.4 nM |  |  | 3080 nM |  |
| CNc1ccc(-c2ccnc3c2cc(CN2CC[C@H](c4ccc(C(=O)N(C)C)cc4)[C@H](F)C2)n3C)cn1 (stereo in doubt) [Example 1s28, N,N-dimethyl-4-[(3S,4R)-3-fluoro-1-[[1-methyl-4-[6-(methylamino)-3-pyridyl]pyrrolo[2,3-b]pyridin-2-yl]methyl]-4-piperidyl]benzamide] | 20.6 nM |  |  |  | 76.4% |
| C[C@H](c1cc2c(-c3ccc(N)nc3)ccnc2n1C)N1CCC(c2ccc(C(=O)N(C)C)cc2)CC1 [Example 1af12, (R)-4-(1-(1-(4-(6-aminopyridin-3-yl)-1-methyl-1H-pyrrolo[2,3-b]pyridin-2-yl)ethyl)piperidin-4-yl)-N,N-dimethylbenzamide] | 12.9 nM |  |  | 246 nM |  |
| C[C@H](c1cc2c(-c3ccc(N)nc3C#N)ccnc2n1C)N1CCC(c2ccc(C(=O)N(C)C)cc2)CC1 [Example 1af14, (R)-4-(1-(1-(4-(6-amino-2-cyanopyridin-3-yl)-1-methyl-1H-pyrrolo[2,3-b]pyridin-2-yl)ethyl)piperidin-4-yl)-N,N-dimethylbenzamide] | 18.5 nM |  |  | 135 nM |  |
| Cc1cc(C(=O)N(C)C)ccc1C1CCN([C@H](C)c2cc3c(-c4ccc(N)cn4)ccnc3n2C)CC1 [Example 1af18, (R)-4-(1-(1-(4-(5-aminopyridin-2-yl)-1-methyl-1H-pyrrolo[2,3-b]pyridin-2-yl)ethyl)piperidin-4-yl)-N,N,3-trimethylbenzamide] | 31.4 nM |  |  | 2910 nM |  |
| C[C@H](c1cc2c(-c3ccc(N)cn3)ccnc2n1C)N1CC=C(c2ccc(C(=O)N(C)C)cc2)CC1 [Example 1af20, (R)-4-(1-(1-(4-(5-aminopyridin-2-yl)-1-methyl-1H-pyrrolo[2,3-b]pyridin-2-yl)ethyl)-1,2,3,6-tetrahydropyridin-4-yl)-N,N-dimethylbenzamide] | 40.4 nM |  |  |  | 76.7% |
| [2H]C([2H])([2H])N(C(=O)c1ccc(C2=CCN([C@H](C)c3cc4c(-c5ccc(N)nc5C#N)ccnc4n3C)CC2)c(C)c1)C([2H])([2H])[2H] [Example 1af26, (R)-4-(1-(1-(4-(6-amino-2-cyanopyridin-3-yl)-1-methyl-1H-pyrrolo[2,3-b]pyridin-2-yl)ethyl)-1,2,3,6-tetrahydropyridin-4-yl)-3-methyl-N,N-bis(methyl-d3)benzamide] | 20 nM |  |  | 65.4 nM |  |
| [2H]C([2H])([2H])N(C(=O)c1ccc(C2CCN([C@H](C)c3cc4c(-c5ccc(N)cn5)ccnc4n3C)CC2)cc1)C([2H])([2H])[2H] [Example 1af36, (R)-4-(1-(1-(4-(5-aminopyridin-2-yl)-1-methyl-1H-pyrrolo[2,3-b]pyridin-2-yl)ethyl)piperidin-4-yl)-N,N-bis(methyl-d3)benzamide] | 15.7 nM |  |  | 404 nM |  |
| [2H]C([2H])([2H])N(C(=O)c1ccc(C2CCN([C@@H](C)c3cc4c(-c5ccc(N)nc5C#N)ccnc4n3C)CC2)c(C)c1)C([2H])([2H])[2H] [Example 1af37, (S)-4-(1-(1-(4-(6-Amino-2-cyanopyridin-3-yl)-1-methyl-1H-pyrrolo[2,3-b]pyridin-2-yl)ethyl)piperidin-4-yl)-3-methyl-N,N-bis(methyl-d3)benzamide] | 57.7 nM |  |  | 699 nM |  |
| CNc1ccc(-c2ccnc3c2cc([C@H](C)N2CCC(c4ccc(C(=O)N(C)C)cc4)CC2)n3C)c(C#N)n1 [Example 1af39, (S)-4-(1-(1-(4-(2-xyano-6-(methylamino)pyridin-3-yl)-1-methyl-1H-pyrrolo-[2,3-b]pyridin-2-yl)ethyl)piperidin-4-yl)-N,N-dimethylbenzamide] | 32.7 nM |  |  | 115 nM |  |
| CNc1ccc(-c2ccnc3c2cc([C@@H](C)N2CCC(c4ccc(C(=O)N(C)C)cc4)CC2)n3C)c(C#N)n1 [Example 1af40, (R)-4-(1-(1-(4-(2-cyano-6-(methyl-amino)pyridin-3-yl)-1-methyl-1H-pyrrolo[2,3-b]pyridin-2-yl)ethyl)piperidin-4-yl)-N,N-dimethylbenzamide] | 2190 nM |  |  | 44400 nM |  |
| Cc1cc(C(=O)N(C)C)ccc1C1=CCN([C@@H](C)c2cc3c(-c4ccc(N)nc4C#N)ccnc3n2C)CC1 [Example 1af44, (S)-4-(1-(1-(4-(6-Amino-2-cyanopyridin-3-yl)-1-methyl-1H-pyrrolo[2,3-b]-pyridin-2-yl)ethyl)-1,2,3,6-tetrahydropyridin-4-yl)-N,N,3-trimethylbenzamide] | 352 nM |  |  | 15900 nM |  |
| Cc1cc(C(=O)N(C)C)ccc1C1=CCN([C@H](C)c2cc3c(-c4ccc(N)nc4C#N)ccnc3n2C)CC1 [Example 1af45, (R)-4-(1-(1-(4-(6-amino-2-cyanopyridin-3-yl)-1-methyl-1H-pyrrolo[2,3-b]pyridin-2-yl)ethyl)-1,2,3,6-tetrahydropyridin-4-yl)-N,N,3-trimethylbenzamide] | 21.6 nM |  |  | 41 nM |  |
| [2H]C([2H])([2H])N(C(=O)c1ccc(C2=CCN([C@H](C)c3cc4c(-c5ccc(N)cn5)ccnc4n3C)CC2)cc1)C([2H])([2H])[2H] [Example 1af46, (R)-4-(1-(1-(4-(5-amino-pyridin-2-yl)-1-methyl-1H-pyrrolo[2,3-b]pyridin-2-yl)ethyl)-1,2,3,6-tetrahydro-pyridin-4-yl)-N,N-bis(methyl-d3)benzamide] | 48.3 nM |  |  | 760 nM |  |
| CNc1ccc(-c2ccnc3c2cc(C(C)N2CC=C(c4c(C)cc(C(=O)N(C)C)cc4F)CC2)n3C)nc1 (stereo not shown) [Example 1z39, 3-fluoro-N,N,5-trimethyl-4-(1-(1-(1-methyl-4-(5-(methylamino)pyridin-2-yl)-1H-pyrrolo[2,3-b]pyridin-2-yl)ethyl)-1,2,3,6-tetrahydropyridin-4-yl)benzamide] |  |  |  | 301 nM |  |
| CNc1ccc(-c2ccnc3c2cc([C@H](C)N2CC=C(c4c(C)cc(C(=O)N(C)C)cc4F)CC2)n3C)nc1 [Example 1z40, (S)-3-fluoro-N,N,5-trimethyl-4-(1-(1-(1-methyl-4-(5-(methylamino)pyridin-2-yl)-1H-pyrrolo[2,3-b]pyridin-2-yl)ethyl)-1,2,3,6-tetrahydropyridin-4-yl)benzamide] |  |  |  | 3290 nM |  |
| CNc1ccc(-c2ccnc3c2cc([C@@H](C)N2CC=C(c4c(C)cc(C(=O)N(C)C)cc4F)CC2)n3C)nc1 [Example 1z41, (R)-3-fluoro-N,N,5-trimethyl-4-(1-(1-(1-methyl-4-(5-(methyl-amino)pyridin-2-yl)-1H-pyrrolo[2,3-b]pyridin-2-yl)ethyl)-1,2,3,6-tetrahydropyridin-4-yl)benzamide] |  |  |  | 110 nM |  |
| CN(C)C(=O)c1cc(F)c(C2=CCN(Cc3cc4c(-c5ccc(N)nc5C#N)ccnc4n3C)CC2)c(F)c1 [Example 1z42, 4-(1-((4-(6-amino-2-cyanopyridin-3-yl)-1-methyl-1H-pyrrolo[2,3-b]pyridin-2-yl)methyl)-1,2,3,6-tetrahydropyridin-4-yl)-3,5-difluoro-N,N-dimethylbenzamide] |  |  |  | 97.3 nM |  |
| [2H]C([2H])([2H])N(C(=O)c1cc(C)c(C2=CCN([C@@H](C)c3cc4c(-c5ccc(NC)nn5)ccnc4n3C)CC2)c(F)c1)C([2H])([2H])[2H] [Example 1z44, (S)-3-fluoro-5-methyl-N,N-bis(methyl-d3)-4-(1-(1-(1-methyl-4-(6-(methylamino)-pyridazin-3-yl)-1H-pyrrolo[2,3-b]pyridin-2-yl)ethyl)-1,2,3,6-tetrahydropyridin-4-yl)benzamide] |  |  |  | 39.5 nM |  |
| CN(C)C(=O)c1ccc(C2=CCN(Cc3cc4c(-c5ccc(N)nc5)ccnc4n3C)CC2)c(OC(F)(F)F)c1 [Example 1z45, 4-(1-((4-(6-aminopyridin-3-yl)-1-methyl-1H-pyrrolo[2,3-b]pyridin-2-yl)methyl)-1,2,3,6-tetrahydropyridin-4-yl)-N,N-dimethyl-3-(trifluoromethoxy)benzamide] |  |  |  | 798 nM |  |
